According to US20240140951A1, “IMIDAZOPYRIDAZINE DERIVATIVES AS IL-17 MODULATORS” (UCB Biopharma SRL, priority 2020, published 2024):

What follows are compounds tested against T1, IL-17A (Homo sapiens, UniProt Q16552) (assay: Inhibition of IL-17A induced IL-6 release from dermal fibroblast cell line (HDF cell line assay)). Conditions: HDF cells stimulated with IL-17A 50 pM + TNF-α 25 pM; IL-6 release measured by HTRF.
T1 sequence (Q16552 24-155): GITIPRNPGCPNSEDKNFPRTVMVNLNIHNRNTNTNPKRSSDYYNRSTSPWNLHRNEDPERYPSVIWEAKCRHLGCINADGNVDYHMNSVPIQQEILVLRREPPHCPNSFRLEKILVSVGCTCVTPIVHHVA
Format: cell-based
Text: Inhibition of IL-17A Induced IL-6 Release from Dermal Fibroblast Cell Line
The purpose of this assay is to test the neutralising ability to IL-17 proteins, in a human primary cell system. Stimulation of normal human dermal fibroblasts (HDF) with IL-17 alone produces only a very weak signal but in combination with certain other cytokines, such as TNFα, a synergistic effect can be seen in the production of inflammatory cytokines, i.e. IL-6.
HDFs were stimulated with IL-17A (50 pM) in combination with TNF-α (25 pM). The resultant IL-6 response was then measured using a homogenous time-resolved FRET kit from Cisbio. The kit utilises two monoclonal antibodies, one labelled with Eu-Cryptate (Donor) and the second with d2 or XL665 (Acceptor). The intensity of the signal is proportional to the concentration of IL-6 present in the sample (Ratio is calculated by 665/620×104).
The ability of a compound to inhibit IL-17 induced IL-6 release from human dermal fibroblasts is measured in this assay.
HDF cells (Sigma #106-05n) were cultured in complete media (DMEM+10% FCS+2 mM L-glutamine) and maintained in a tissue culture flask using standard techniques. Cells were harvested from the tissue culture flask on the morning of the assay using TrypLE (Invitrogen #12605036). The TrypLE was neutralised using complete medium (45 mL) and the cells were centrifuged at 300×g for 3 minutes. The cells were re-suspended in complete media (5 mL) counted and adjusted to a concentration of 3.125×10^4 cells/mL before being added to the 384 well assay plate (Corning #3701) at 40 μL per well. The cells were left for a minimum of three hours, at 37° C./5% CO2, to adhere to the plate.
Compounds were serially diluted in DMSO before receiving an aqueous dilution into a 384 well dilution plate (Greiner #781281), where 5 μL from the titration plate was transferred to 45 μL of complete media and mixed to give a solution containing 10% DMSO.
Mixtures of TNFα and IL-17 cytokine were prepared in complete media to final concentrations of TNFα 25 pM/IL-17A 50 pM, then 30 μL of the solution was added to a 384 well reagent plate (Greiner #781281).
L from the aqueous dilution plate was transferred to the reagent plate containing 30 μL of the diluted cytokines, to give a 2.5% DMSO solution. The compounds were incubated with the cytokine mixtures for 5 h at 37° C. After the incubation, 10 μL was transferred to the assay plate, to give a 0.5% DMSO solution, then incubated for 18-20 h at 37° C./5% CO2.
From the Cisbio IL-6 FRET kit (Cisbio #62IL6PEB) europium cryptate and Alexa 665 were diluted in reconstitution buffer and mixed 1:1, as per kit insert. To a white low volume 384 well plate (Greiner #784075) were added FRET reagents (10 μL), then supernatant (10 μL) was transferred from the assay plate to Greiner reagent plate. The mixture was incubated at room temperature for 3 h with gentle shaking (<400 rpm) before being read on a Synergy Neo 2 plate reader (Excitation: 330 nm; Emission: […]).
An IC50 of 0.316 µM was found for `Cc1nonc1C(=O)NC(c1cn2ncc(C(CC(F)F)C(=O)NCC(F)(F)F)cc2n1)C(C1CC1)C1CC1` (stereo not shown) [Example 11, N-(2,2-Dicyclopropyl-1-{7-[3,3-difluoro-1-(2,2,2-trifluoroethylcarbamoyl)propyl]-imidazo[1,2-b]pyridazin-2-yl}ethyl)-4-methyl-1,2,5-oxadiazole-3-carboxamide] in this work. An IC50 of 0.0251 µM was found for `CC(C)n1nccc1C(=O)N[C@H](c1cn2ncc(C(CC(F)F)C(=O)NCC(F)(F)F)cc2n1)C1CCC(F)(F)CC1` (stereo partly drawn) [Example 7, N-[(S)-(4,4-Difluorocyclohexyl){7-[3,3-difluoro-1-(2,2,2-trifluoroethylcarbamoyl)-propyl]imidazo[1,2-b]pyridazin-2-yl}methyl]-2-isopropylpyrazole-3-carboxamide] in this work. An IC50 of 0.00631 µM was found for `CC(F)(F)CNC(=O)C1(c2cnn3cc([C@@H](NC(=O)c4nonc4C4CC4)C4CCC(F)(F)CC4)nc3c2)CCOCC1` [Example 17, 4-Cyclopropyl-N-[(S)-(4,4-difluorocyclohexyl){7-[4-(2,2-difluoropropylcarbamoyl)-tetrahydropyran-4-yl]imidazo[1,2-b]pyridazin-2-yl}methyl]-1,2,5-oxadiazole-3-carboxamide] in this work. An IC50 of 0.01 µM was found for `CNC(=O)[C@H](NC(=O)C(CC(F)F)c1cnn2cc([C@@H](NC(=O)c3nonc3C)C3CCC(F)(F)CC3)nc2c1)C(C)C` (stereo partly drawn) [Example 2, N-{(S)-(4,4-difluorocyclohexyl)[7-(3,3-difluoro-1-{[(1R)-2-methyl-1-(methylcarbamoyl)-propyl]carbamoyl}propyl)imidazo[1,2-b]pyridazin-2-yl]methyl}-4-methyl-1,2,5-oxadiazole-3-carboxamide] in this work. An IC50 of 0.02 µM was found for `Cc1nonc1C(=O)N[C@H](c1cn2ncc(C(CC(F)F)c3nnnn3CC(F)(F)F)cc2n1)C1CCC(F)(F)CC1` (single isomer, unassigned) [Example 15, N-[(S)-(4,4-Difluorocyclohexyl)(7-{(1S*)-3,3-difluoro-1-[1-(2,2,2-trifluoroethyl)tetrazol-5-yl]propyl}imidazo[1,2-b]pyridazin-2-yl)methyl]-4-methyl-1,2,5-oxadiazole-3-carboxamide] in this work. An IC50 of 0.0631 µM was found for `Cc1nonc1C(=O)N[C@H](c1cn2ncc(C3(C(=O)NCC(F)(F)F)CCC(F)(F)CC3)cc2n1)C1CCC(F)(F)CC1` [Example 9, N-[(S)-(4,4-Difluorocyclohexyl){7-[4,4-difluoro-1-(2,2,2-trifluoroethylcarbamoyl)-cyclohexyl]imidazo[1,2-b]pyridazin-2-yl}methyl]-4-methyl-1,2,5-oxadiazole-3-carboxamide] in this work. An IC50 of 0.0316 µM was found for `Cc1nonc1C(=O)N[C@H](c1cn2ncc(C(CC(F)F)c3nnc4ccc(F)cn34)cc2n1)C1CCC(F)(F)CC1` (single isomer, unassigned) [Example 12] in this work. An IC50 of 0.158 µM was found for `CC(C)n1ncnc1C(=O)N[C@H](c1cn2ncc(C(CC(F)F)C(=O)NCC(F)(F)F)cc2n1)C1CCC(F)(F)CC1` (stereo partly drawn) [Example 8, N-[(S)-(4,4-Difluorocyclohexyl){7-[3,3-difluoro-1-(2,2,2-trifluoroethylcarbamoyl)-propyl]imidazo[1,2-b]pyridazin-2-yl}methyl]-2-isopropyl-1,2,4-triazole-3-carboxamide] in this work. An IC50 of 0.0398 µM was found for `Cc1nonc1C(=O)N[C@H](c1cn2ncc(C(CC(F)F)C(=O)NCC(F)(F)F)cc2n1)C1CCC(F)(F)CC1` (stereo partly drawn) [Example 1, N-[(S)-(4,4-Difluorocyclohexyl){7-[3,3-difluoro-1-(2,2,2-trifluoroethylcarbamoyl)-propyl]imidazo[1,2-b]pyridazin-2-yl}methyl]-4-methyl-1,2,5-oxadiazole-3-carboxamide] in this work. An IC50 of 0.0631 µM was found for `Cc1nonc1C(=O)N[C@H](c1cn2ncc(C3(C(=O)NCC(C)(F)F)CCOCC3)cc2n1)C1CCC(F)(F)CC1` [Example 14, N-[(S)-(4,4-Difluorocyclohexyl){7-[4-(2,2-difluoropropylcarbamoyl)tetrahydropyran-4-yl]imidazo[1,2-b]pyridazin-2-yl}methyl]-4-methyl-1,2,5-oxadiazole-3-carboxamide] in this work. An IC50 of 0.0251 µM was found for `Cc1nonc1C(=O)N[C@H](c1cn2ncc(C3CN(C4COC4)CC3C(=O)N3CC(F)(F)C(F)(F)C3)cc2n1)C1CCC(F)(F)CC1` (single isomer, unassigned) [Example 13] in this work. An IC50 of 0.02 µM was found for `CCc1nonc1C(=O)N[C@H](c1cn2ncc(C(CC(F)F)C(=O)NCC(F)(F)F)cc2n1)C1CCC(F)(F)CC1` (stereo partly drawn) [Example 5, N-[(S)-(4,4-Difluorocyclohexyl){7-[3,3-difluoro-1-(2,2,2-trifluoroethylcarbamoyl)-propyl]imidazo[1,2-b]pyridazin-2-yl}methyl]-4-ethyl-1,2,5-oxadiazole-3-carboxamide] in this work. An IC50 of 0.0251 µM was found for `Cc1nonc1C(=O)N[C@H](c1cn2ncc(C3CC(F)(F)CCN3C(=O)C34CC(F)(C3)C4)cc2n1)C1CCC(F)(F)CC1` (single isomer, unassigned) [Example 16] in this work.
